# Laboratory results: patent publication US20230414593A1, “EZH2 INHIBITION THERAPIES FOR THE TREATMENT OF ANDROGEN RECEPTOR MUTATED PROSTATE CANCERS” (Constellation Pharmaceuticals, Inc, priority 2020, published 2023)
# Tested on: LNCaP-FGC tumor cells
# Assay: Tumor growth inhibition in prostate cancer LNCaP model with AR mutation H875Y
# Type: in vivo, mouse
# Conditions: 75 mg/kg orally once daily, LNCaP-FGC subcutaneous tumors, Cmp. 1 compared with Cmp. 2, FIG. 2
# Method: (R)-7-chloro-2-((1r,4R)-4-(3-methoxyazetidin-1-yl)cyclohexyl)-2,4-dimethyl-N-((6-methyl-4-(methylthio)-2-oxo-1,2-dihydropyridin-3-yl)methyl)benzo[d][1,3]dioxole-5-carboxamide and R—N-((4-methoxy-6-methyl-2-oxo-1,2-dihydropyridin-3-yl)methyl)-2-methyl-1-(1-(1-(2,2,2-trifluoroethyl)piperidin-4-yl)ethyl)-1H-indole-3-carboxamide were examined in a prostate cancer LNCaP Model with AR mutation H875Y.
# A fixed dose of 75 mg/kg was used for both compounds. Each mouse was inoculated subcutaneously at the right flank with LNCaP-FGC tumor cells (10×10^6) in 0.1 ml of PBS mixed with RPMI-1640:Matrigel (50:50) for tumor development. The treatments started when the average tumor volume reached approximately 158 mm^3. The test articles were administered orally once daily. The tumor size was used for the calculation of tumor growth inhibition (TGI)=[1−(T1−T0)/(C1−C0)]×100, where C1=mean tumor volume of control mice at time t, T1=mean tumor volume of treated mice at time t, C0=mean tumor volume of control mice at time 0, and T0=mean tumor volume of treated mice at time 0].
compound,measurement,setting,value
"COC1CN([C@H]2CC[C@H]([C@@]3(C)Oc4c(Cl)cc(C(=O)NCc5c(SC)cc(C)[nH]c5=O)c(C)c4O3)CC2)C1 [Cmp. 1, (R)-7-chloro-2-((1r,4R)-4-(3-methoxyazetidin-1-yl)cyclohexyl)-2,4-dimethyl-N-((6-methyl-4-(methylthio)-2-oxo-1,2-dihydropyridin-3-yl)methyl)benzo[d][1,3]dioxole-5-carboxamide]","tumor growth inhibition (TGI), relative tumor volume % reduction",,more efficacious at tumor growth inhibition
same,"tumor growth inhibition (TGI), relative tumor volume % reduction","listed as (R)-7-chloro-2-(1r,4R)-4-(3-methoxyazetidin-1-yl)cyclohexyl)-2,4-dimethyl-N-((6)",more efficacious
